From patent publication US20230365576A1, “BRM Targeting Compounds And Associated Methods Of Use” (Prelude Therapeutics Incorporated, priority 2022, published 2023) come the findings set out here.

Structures are written as SMILES.

The target in one assay is T1, SMARCA2 (Homo sapiens, UniProt P51531).
T1 construct: SMARCA2-HiBiT knock-in Hela monoclonal cell (CS302366); host or cells: HeLa (CRISPR HiBiT knock-in monoclonal line, heterozygous)
The assay can be described thus: SMARCA2 HiBiT degradation assay in HeLa cells. The settings on record: 18 hours; for DC50: read-out: SMARCA2 IC50; for Dmax: HeLa. It counts as cell-based. The protocol: (§1) Example A. SMARCA2 HiBiT and SMARCA4 HiBiT Degradation Assay
(§2) Preparation of SMARCA2/4-HiBiT Knock-In Cells
(§3) HiBiT peptide knock-in of SMARCA2 in LgBiT expressing HEK293T cells was performed by CRISPR-mediated tagging system as described Promega. The homozygous HiBiT knock-in on c-terminus SMARCA2 was confirmed by sanger sequence. SMARCA2-HiBiT knock-in Hela monoclonal cell (CS302366) and SMARCA4-HiBiT knock-in Hela monoclonal cell (CS3023226) were purchased from Promega. The heterozygous HiBiT-knock-in was confirmed by sanger sequence in both SMARCA2-HiBiT and SMARCA4-HiBiT monoclonal cells.
(§4) SMARCA2 HiBiT and SMARCA4 HiBiT Degradation Assay in HeLa Cells
(§5) Compounds were dissolved in DMSO to make 10 mM stock and 3-fold series dilutions were further conducted keeping the highest concentration 10 μM. NCIH1693 and NCIH520 cells were maintained in PRMI 1640 medium (Corning Cellgro, Catalog #:10-040-CV) supplemented with 10% v/v FBS (GE Healthcare, Catalog #: SH30910.03) by splitting 1:3 twice a week.
(§6) Dispense 10 ul aliquot of prepared Hela-SMARCA2-HiBiT or Hela-SMARCA4-HiBiT cells (1:1 ratio of cells:Trypan Blue (#1450013, Bio-Rad)) onto cell counting slide (#145-0011, Bio-Rad) and obtain cell density and cell viability using cell counter (TC20, Bio-Rad). Remove appropriate volume of resuspended cells from culture flask to accommodate 2500 cells/well @ 20 μL/well. Transfer Hela-HiBiT cells to 50 mL conical (#430290, Corning). Spin down at 1000 rpm for 5 min using tabletop centrifuge (SPINCHRON 15, Beckman). Discard supernatant and resuspend cell pellet in modified EMEM (#30-2003, ATCC) cell culture media containing 10% FBS (F2422-500ML, Sigma), and 1X Penicillin/Streptomycin (200 g/L) (30-002-CI, Corning) to a cell density of 125,000 cells/mL. Dispense 20 μL of resuspended Hela-HiBit cells per well in 384-well TC treated plate (#12-565-343, Thermo Scientific) using standard cassette (#50950372, Thermo Scientific) on Multidrop Combi (#5840310, Thermo Scientific) inside laminar flow cabinet. Dispense test compounds onto plates using digital liquid dispenser (D300E, Tecan). Incubate plates in humidified tissue culture incubator @37° C. for 18 hours. Add 20 μL of prepared Nano-Glo® HiBiT Lytic detection buffer (N3050, Promega) to each well of 384-well plate using small tube cassette (#24073295, Thermo Scientific) on Multidrop Combi, incubate @ RT for 30-60 min. Read plates on microplate reader (Envision 2105, PerkinElmer) using 384 well Ultra-Sensitive luminescence mode. Raw data files and compound information reports are swept into centralized data lake and deconvoluted using automated scripts designed by TetraScience, Inc. Data analysis, curve-fitting and reporting done in Dotmatics Informatics Suite using Screening Ultra module.
Background: The HiBiT peptide binds its large partner to form an active luciferase.

The target of the next assay is T2, SMARCA4 (Homo sapiens, UniProt P51532).
T2 construct: SMARCA4-HiBiT knock-in Hela monoclonal cell (CS3023226) were purchased from Promega; host or cells: HeLa (CRISPR HiBiT knock-in monoclonal line, heterozygous)
The assay can be described thus: SMARCA4 HiBiT degradation assay in HeLa cells. It is filed as cell-based. Conditions: 18 hours; for Dmax: HeLa. The protocol: as §1, §2, §3, §4, §5, §6

T1 sequence (P51531 whole entry): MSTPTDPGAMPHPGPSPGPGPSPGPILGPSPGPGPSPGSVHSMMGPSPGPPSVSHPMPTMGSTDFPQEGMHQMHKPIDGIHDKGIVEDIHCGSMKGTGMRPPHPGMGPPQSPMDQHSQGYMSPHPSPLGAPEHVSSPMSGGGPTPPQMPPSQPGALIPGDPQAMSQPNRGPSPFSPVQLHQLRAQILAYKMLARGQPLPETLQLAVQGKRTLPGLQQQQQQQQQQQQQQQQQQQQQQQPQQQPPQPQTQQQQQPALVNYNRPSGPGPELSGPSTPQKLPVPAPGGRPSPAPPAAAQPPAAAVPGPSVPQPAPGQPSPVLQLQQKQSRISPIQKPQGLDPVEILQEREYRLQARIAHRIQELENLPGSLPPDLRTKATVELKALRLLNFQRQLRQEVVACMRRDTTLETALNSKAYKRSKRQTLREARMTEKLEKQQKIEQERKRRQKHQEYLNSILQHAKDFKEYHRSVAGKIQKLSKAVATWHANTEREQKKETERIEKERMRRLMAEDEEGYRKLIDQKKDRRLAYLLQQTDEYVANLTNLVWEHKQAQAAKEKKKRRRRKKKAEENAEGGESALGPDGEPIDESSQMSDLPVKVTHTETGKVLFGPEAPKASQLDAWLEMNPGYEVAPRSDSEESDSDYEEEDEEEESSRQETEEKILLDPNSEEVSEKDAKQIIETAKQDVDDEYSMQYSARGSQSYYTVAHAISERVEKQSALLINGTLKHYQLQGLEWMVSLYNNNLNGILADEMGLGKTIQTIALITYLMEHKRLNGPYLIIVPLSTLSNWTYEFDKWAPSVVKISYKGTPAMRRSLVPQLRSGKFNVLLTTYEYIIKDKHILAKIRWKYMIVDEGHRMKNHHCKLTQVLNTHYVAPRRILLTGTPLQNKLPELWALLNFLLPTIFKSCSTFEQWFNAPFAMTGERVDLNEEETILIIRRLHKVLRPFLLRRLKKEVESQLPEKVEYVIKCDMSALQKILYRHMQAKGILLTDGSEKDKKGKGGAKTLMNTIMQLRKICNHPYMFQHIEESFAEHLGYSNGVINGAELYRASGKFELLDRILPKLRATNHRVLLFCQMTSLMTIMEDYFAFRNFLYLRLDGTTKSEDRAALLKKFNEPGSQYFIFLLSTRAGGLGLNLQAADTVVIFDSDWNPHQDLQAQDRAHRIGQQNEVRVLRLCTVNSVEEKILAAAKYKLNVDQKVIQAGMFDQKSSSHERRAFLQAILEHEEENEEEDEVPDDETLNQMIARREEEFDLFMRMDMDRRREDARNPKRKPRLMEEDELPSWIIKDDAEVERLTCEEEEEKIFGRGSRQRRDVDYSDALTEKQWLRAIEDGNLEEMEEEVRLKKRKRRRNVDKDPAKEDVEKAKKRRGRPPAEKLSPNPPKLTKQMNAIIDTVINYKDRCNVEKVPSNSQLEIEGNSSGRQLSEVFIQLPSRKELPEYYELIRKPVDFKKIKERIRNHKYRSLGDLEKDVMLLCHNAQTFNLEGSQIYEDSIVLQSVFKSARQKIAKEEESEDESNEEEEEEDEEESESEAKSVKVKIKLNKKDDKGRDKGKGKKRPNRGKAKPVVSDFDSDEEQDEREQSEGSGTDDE
T2 sequence (P51532 whole entry): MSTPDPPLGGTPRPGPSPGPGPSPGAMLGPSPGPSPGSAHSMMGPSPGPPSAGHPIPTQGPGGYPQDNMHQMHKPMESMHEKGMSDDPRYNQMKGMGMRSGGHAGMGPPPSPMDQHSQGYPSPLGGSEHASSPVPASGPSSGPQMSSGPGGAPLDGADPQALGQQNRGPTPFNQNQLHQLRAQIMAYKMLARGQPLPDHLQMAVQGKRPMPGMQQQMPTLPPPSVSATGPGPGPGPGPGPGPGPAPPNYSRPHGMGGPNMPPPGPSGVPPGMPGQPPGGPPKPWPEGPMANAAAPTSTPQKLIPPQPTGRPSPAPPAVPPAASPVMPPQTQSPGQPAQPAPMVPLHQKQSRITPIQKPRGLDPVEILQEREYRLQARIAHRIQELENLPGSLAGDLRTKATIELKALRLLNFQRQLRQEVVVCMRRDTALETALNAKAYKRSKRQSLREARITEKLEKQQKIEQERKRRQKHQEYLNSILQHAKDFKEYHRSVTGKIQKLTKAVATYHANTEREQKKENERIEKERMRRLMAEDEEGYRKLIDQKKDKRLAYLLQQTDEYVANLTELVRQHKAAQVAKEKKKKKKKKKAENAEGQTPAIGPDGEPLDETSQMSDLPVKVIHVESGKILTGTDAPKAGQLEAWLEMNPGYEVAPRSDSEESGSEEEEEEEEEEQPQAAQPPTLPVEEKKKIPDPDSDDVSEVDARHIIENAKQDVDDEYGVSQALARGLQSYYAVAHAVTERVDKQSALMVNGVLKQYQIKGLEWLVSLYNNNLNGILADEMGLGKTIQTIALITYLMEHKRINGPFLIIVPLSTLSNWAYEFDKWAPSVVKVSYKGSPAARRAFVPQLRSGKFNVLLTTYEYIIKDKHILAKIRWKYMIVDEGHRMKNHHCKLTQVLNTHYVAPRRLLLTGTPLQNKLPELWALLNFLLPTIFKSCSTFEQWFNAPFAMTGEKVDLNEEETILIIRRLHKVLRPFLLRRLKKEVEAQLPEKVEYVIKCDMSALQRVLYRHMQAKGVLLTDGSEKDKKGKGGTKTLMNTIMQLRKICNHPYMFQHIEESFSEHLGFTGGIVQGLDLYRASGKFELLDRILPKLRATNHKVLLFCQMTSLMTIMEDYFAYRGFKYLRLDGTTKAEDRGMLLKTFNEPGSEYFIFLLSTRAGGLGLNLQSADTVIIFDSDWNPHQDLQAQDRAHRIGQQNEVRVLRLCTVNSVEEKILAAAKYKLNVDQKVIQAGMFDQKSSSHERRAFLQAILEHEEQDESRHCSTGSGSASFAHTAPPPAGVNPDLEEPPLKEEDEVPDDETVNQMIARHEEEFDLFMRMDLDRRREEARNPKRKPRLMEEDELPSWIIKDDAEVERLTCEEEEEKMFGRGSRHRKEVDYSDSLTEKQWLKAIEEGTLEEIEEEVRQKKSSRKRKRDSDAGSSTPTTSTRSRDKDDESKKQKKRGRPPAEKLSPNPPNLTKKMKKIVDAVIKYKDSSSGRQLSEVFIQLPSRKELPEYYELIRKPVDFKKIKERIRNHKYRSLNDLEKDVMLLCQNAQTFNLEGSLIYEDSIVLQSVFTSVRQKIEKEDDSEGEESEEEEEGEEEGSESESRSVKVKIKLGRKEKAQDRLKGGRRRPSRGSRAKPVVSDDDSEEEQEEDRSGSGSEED

With `CCC12CNc3nnc(-c4cccc(Cl)c4O)cc3N1CCN(C(=O)N1[C@H](C)CN(CC3CCN(c4ccc5c(c4)C(=O)N([C@H]4CCC(=O)NC4=O)C5)CC3)C[C@H]1C)C2` (single isomer, unassigned) [Example 75], the DC50 at SMARCA2 and at SMARCA4 was less than 100 nM throughout. Moreover, the Dmax – broadly, the largest share of the target that was removed – on SMARCA2 is greater than 75%; at SMARCA4, 50 to 75%.
Regarding `CCC12CNc3nnc(-c4cccc(Cl)c4O)cc3N1CCN(C(=O)N1CCN(CC3CCN(c4ccc5c(c4)C(=O)N([C@H]4CCC(=O)NC4=O)C5)CC3)CC1(C)C)C2` (single isomer, unassigned) [Example 76], the DC50 at SMARCA2 and at SMARCA4 was less than 100 nM each time. In addition, the Dmax was greater than 75% on SMARCA2 and 50 to 75% on SMARCA4.
`CCC12CNc3nnc(-c4cccc(Cl)c4O)cc3N1CCN(C(=O)N1C[C@H](C)N(CC3CCN(c4ccc5c(c4)C(=O)N([C@H]4CCC(=O)NC4=O)C5)CC3)C[C@H]1C)C2` (single isomer, unassigned) [Example 77]: at SMARCA2, the DC50 was less than 100 nM and the Dmax was greater than 75%. At SMARCA4, this molecule registered a DC50 of less than 100 nM and a Dmax of 50 to 75%.
Turning to `CCC12CNc3nnc(-c4cccc(F)c4O)cc3N1CCN(C(=O)N1C[C@H](C)N(CC3CCN(c4ccc5c(c4)C(=O)N([C@H]4CCC(=O)NC4=O)C5)CC3)C[C@H]1C)C2` (single isomer, unassigned) [Example 78], the DC50 at SMARCA2 and at SMARCA4 was less than 100 nM in each case. Further, the Dmax at SMARCA2 is greater than 75%; on SMARCA4, 50 to 75%.
As for `CCC12CNc3nnc(-c4cccc(F)c4O)cc3N1CCN(C(=O)N1CCN(CC3CCN(c4ccc5c(c4)C(=O)N(C4CCC(=O)NC4=O)C5)CC3)CC1(C)C)C2` (single isomer, unassigned) [Example 79, 3-(6-(4-((4-(6a-ethyl-2-(3-fluoro-2-hydroxyphenyl)-6,6a,7,8,9,10-hexahydro-5H-pyrazino-[1′,2′:4,5]pyrazino[2,3-c]pyridazine-8-carbonyl)-3,3-dimethylpiperazin-1-yl)methyl)-piperidin-1-yl)-1-oxoisoindolin-2-yl)piperidine-2,6-dione], the DC50 at SMARCA2 is less than 100 nM; at SMARCA4, greater than 1000 nM. In addition, the Dmax on SMARCA2 is greater than 75%; at SMARCA4 it was less than 50%.
With `CCC12CNc3nnc(-c4cccc(F)c4O)cc3N1CCN(C(=O)N1CCN(CC3CCN(c4ccc5c(c4)C(=O)N(C4CCC(=O)NC4=O)C5)CC3)CC1(C)C)C2` (single isomer, unassigned) [Example 80, 3-(6-(4-((4-(6a-ethyl-2-(3-fluoro-2-hydroxyphenyl)-6,6a,7,8,9,10-hexahydro-5H-pyrazino-[1′,2′:4,5]pyrazino[2,3-c]pyridazine-8-carbonyl)-3,3-dimethylpiperazin-1-yl)methyl)-piperidin-1-yl)-1-oxoisoindolin-2-yl)piperidine-2,6-dione], at SMARCA2, the “SMARCA2 DMax %” value is “A (A=Dmax>75%)” and the DC50 was less than 100 nM. For the same molecule, on SMARCA4, the DC50 is less than 100 nM and the “SMARCA4 DMax %” value is “B (B=50%<Dmax≤75%)”.
Turning to `CCC12CNc3nnc(-c4cccc(F)c4O)cc3N1CCN(C(=O)N1[C@@H](C)CN(CC3CCN(c4ccc5c(c4)C(=O)N(C4CCC(=O)NC4=O)C5)CC3)C[C@@H]1C)C2` (single isomer, unassigned) [Example 81], on SMARCA2, the DC50 was less than 100 nM and the Dmax is greater than 75%. At SMARCA4, the DC50 lay in the range of 100 to 1000 nM and the greatest degradation seen (Dmax) was less than 50%.
In the case of `CCC12CNc3nnc(-c4cccc(F)c4O)cc3N1CCN(C(=O)N1[C@H](C)CN(CC3CCN(c4ccc5c(c4)C(=O)N(C4CCC(=O)NC4=O)C5)CC3)C[C@H]1C)C2` (single isomer, unassigned) [Example 82], on SMARCA2, the DC50 is less than 100 nM and the Dmax was greater than 75%. For the same molecule, at SMARCA4, the DC50 was less than 100 nM and the “SMARCA4 DMax %” value is “A (A=Dmax>75%)”.
For the molecule `CCC12CNc3nnc(-c4cccc(F)c4O)cc3N1CCN(C(=O)N1[C@H](C)CN(CC3CCN(c4ccc5c(c4)C(=O)N(C4CCC(=O)NC4=O)C5)CC3)C[C@H]1C)C2` (single isomer, unassigned) [Example 83], at SMARCA2, the “SMARCA2 DMax %” value is listed as “A (A=Dmax>75%)” and the DC50 is less than 100 nM. At SMARCA4, the DC50 was less than 100 nM and the “SMARCA4 DMax %” value is on record as “B (B=50%<Dmax≤75%)”.
Take `CCC12CNc3nnc(-c4cccc(F)c4O)cc3N1CCN(C(=O)N1C[C@H](C)N(CC3CCN(c4ccc5c(c4)C(=O)N(C4CCC(=O)NC4=O)C5)CC3)C[C@H]1C)C2` (single isomer, unassigned) [Example 84]: at SMARCA2, the DC50 is less than 100 nM and the Dmax was greater than 75%. At SMARCA4, this molecule came in with a DC50 of less than 100 nM and a Dmax of 50 to 75%.
For the molecule `CCC12CNc3nnc(-c4cc(F)cc(F)c4O)cc3N1CCN(C(=O)N1[C@H](C)CN(CC3CCN(c4ccc5c(c4)C(=O)N(C4CCC(=O)NC4=O)C5)CC3)C[C@@H]1C)C2` (single isomer, unassigned) [Example 85], the DC50 at SMARCA2 and at SMARCA4 was less than 100 nM in each case.
Take `CCC12CNc3nnc(-c4cccc(F)c4O)cc3N1CCN(C(=O)N1[C@H](C)CN(CC3CCN(c4ccc5c(c4)C(=O)N(C4CCC(=O)NC4=O)C5)CC3)C[C@@H]1C)C2` (single isomer, unassigned) [Example 86]: at SMARCA2, the “SMARCA2 DMax %” value is “A (A=Dmax>75%)” and the DC50 is less than 100 nM. On SMARCA4, the DC50 is less than 100 nM and the “SMARCA4 DMax %” value is “A (A=Dmax>75%)”.
In the case of `CCC12CNc3nnc(-c4cc(F)cc(F)c4O)cc3N1CCN(C(=O)N1[C@H](C)CN(CC3CCN(c4ccc5c(c4)C(=O)N(C4CCC(=O)NC4=O)C5)CC3)C[C@@H]1C)C2` (single isomer, unassigned) [Example 87], the DC50 on SMARCA2 and on SMARCA4 was less than 100 nM in each case.
Turning to `CCC12CNc3nnc(-c4cccc(F)c4O)cc3N1CCN(C(=O)N1[C@H](C)CN(CC3CCN(c4ccc5c(c4)C(=O)N(C4CCC(=O)NC4=O)C5)CC3)C[C@@H]1C)C2` (single isomer, unassigned) [Example 88], on SMARCA2, the “SMARCA2 DMax %” value is on record as “A (A=Dmax>75%)” and the DC50 was less than 100 nM. Besides, on SMARCA4, the DC50 was less than 100 nM and the “SMARCA4 DMax %” value is “A (A=Dmax>75%)”.
Regarding `CC1(C)CN(CC2CCN(c3ccc4c(c3)C(=O)N([C@H]3CCC(=O)NC3=O)C4)CC2)CCN1C(=O)N1CCN2c3cc(-c4cccc(F)c4O)nnc3NCC2(CF)C1` (single isomer, unassigned) [Example 89], on SMARCA2, the DC50 is less than 100 nM and the Dmax is greater than 75%. On SMARCA4, this molecule came in with a DC50 of 100 to 1000 nM and a Dmax of less than 50%.
Consider `CC1(C)CN(CC2CCN(c3ccc4c(c3)C(=O)N([C@H]3CCC(=O)NC3=O)C4)CC2)CCN1C(=O)N1CCN2c3cc(-c4cccc(F)c4O)nnc3NCC2(CF)C1` (single isomer, unassigned) [Example 90], for which, at SMARCA2, the “SMARCA2 DMax %” value is on record as “A (A=Dmax>75%)” and the DC50 was less than 100 nM. Moreover, at SMARCA4, the DC50 is greater than 1000 nM and the “SMARCA4 DMax %” value is reported as “C (C=Dmax<50%)”.
With `C[C@@H]1CN(CC2CCN(c3ccc4c(c3)C(=O)N(C3CCC(=O)NC3=O)C4)CC2)[C@@H](C)CN1C(=O)N1CCN2c3cc(-c4cccc(F)c4O)nnc3NCC2(C)C1` (single isomer, unassigned) [Example 91], the figures for the DC50 at SMARCA2 and at SMARCA4 were less than 100 nM and 100 to 1000 nM, respectively. Besides, the Dmax is greater than 75% on SMARCA2 and less than 50% on SMARCA4.
Taken in the same sequence, the figures for `C[C@@H]1CN(CC2CCN(c3ccc4c(c3)C(=O)N(C3CCC(=O)NC3=O)C4)CC2)C[C@H](C)N1C(=O)N1CCN2c3cc(-c4cccc(Cl)c4O)nnc3NCC2(C)C1` (single isomer, unassigned) [Example 92] were less than 100 nM, greater than 1000 nM, greater than 75% and less than 50%.
